From PubChem BioAssay AID248 (DTP/NCI, 2004)
Several values for one entry are separate records, joined by “and”; a condition that tells them apart may be missing. Equal values may be shown once. Inconclusive results and toxic doses are left out. Cut-off read from the data, not from the text of the source: active = T/C of 150% or more; inactive = T/C below 125%.

System: L1210 leukemia ip in BDF1 mice, survival T/C
Assay: NCI In Vivo Anticancer Drug Screen. Data for tumor model L1210 Leukemia (intraperitoneal) in B6D2F1 (BDF1) mice
Details: endpoint: mean survival time, higher = longer survival
How it was run: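 Antitumor effect is assessed in tumor-bearing animals. Survival in the compound arm is compared with a vehicle-dosed control arm and expressed as their quotient.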

[1] = dose: 100.0 mg/kg/injection, schedule: Q01DX001 (ip), vehicle: saline
[2] = dose: 200.0 mg/kg/injection, schedule: Q01DX001 (ip), vehicle: saline
[3] = dose: 400.0 mg/kg/injection, schedule: Q01DX001 (ip), vehicle: saline
[4] = dose: 100.0 mg/kg/injection, schedule: Q04DX003 (ip), vehicle: Klucel (hydroxypropylcellulose) (HPC)
[5] = dose: 200.0 mg/kg/injection, schedule: Q04DX003 (ip), vehicle: Klucel (hydroxypropylcellulose) (HPC)
[6] = dose: 400.0 mg/kg/injection, schedule: Q04DX003 (ip), vehicle: Klucel (hydroxypropylcellulose) (HPC)
[7] = dose: 100.0 mg/kg/injection, schedule: Q04DX003 (ip), vehicle: saline with Tween-80
[8] = dose: 200.0 mg/kg/injection, schedule: Q04DX003 (ip), vehicle: saline with Tween-80
[9] = dose: 400.0 mg/kg/injection, schedule: Q04DX003 (ip), vehicle: saline with Tween-80
[10] = dose: 100.0 mg/kg/injection, schedule: Q04DX002 (ip), vehicle: Klucel (hydroxypropylcellulose) (HPC)
[11] = dose: 200.0 mg/kg/injection, schedule: Q04DX002 (ip), vehicle: Klucel (hydroxypropylcellulose) (HPC)
[12] = dose: 400.0 mg/kg/injection, schedule: Q04DX002 (ip), vehicle: Klucel (hydroxypropylcellulose) (HPC)
[13] = dose: 100.0 mg/kg/injection, schedule: Q01DX009 (ip), vehicle: Klucel (hydroxypropylcellulose) (HPC)
[14] = dose: 200.0 mg/kg/injection, schedule: Q01DX001 (ip), vehicle: Klucel (hydroxypropylcellulose) (HPC)
[15] = dose: 400.0 mg/kg/injection, schedule: Q01DX001 (ip), vehicle: Klucel (hydroxypropylcellulose) (HPC)

Measured: T/C

ClC1=C(Cl)C(Cl)(Cl)C(Cl)=C1Cl
inactive: dose: 0.25 mg/kg/injection, schedule: Q04DX002 (ip), vehicle: Klucel (hydroxypropylcellulose) (HPC) 103 % of control | dose: 0.5 mg/kg/injection, schedule: Q04DX002 (ip), vehicle: Klucel (hydroxypropylcellulose) (HPC) 107 % of control | dose: 1.0 mg/kg/injection, schedule: Q04DX002 (ip), vehicle: Klucel (hydroxypropylcellulose) (HPC) 88 % of control

c1ccc(CN2C3C(c4ccccc4)=NN=C(c4ccccc4)C32)cc1 (centres undefined)
inactive: [1] 98 % of control | [2] 102 % of control | [3] 102 % of control

CN(C)c1ccc(-c2cc[n+](C)cc2)cc1
inactive: dose: 3.13 mg/kg/injection, schedule: Q04DX003 (ip), vehicle: saline 101 % of control | dose: 6.25 mg/kg/injection, schedule: Q04DX003 (ip), vehicle: saline 101 % of control | dose: 12.5 mg/kg/injection, schedule: Q04DX003 (ip), vehicle: saline 104 % of control

O=C1NC(=O)N(c2ccc(Cl)cc2)C1=O
inactive: dose: 100.0 mg/kg/injection, schedule: Q04DX002 (ip), vehicle: saline with Tween-80 111 % of control | dose: 200.0 mg/kg/injection, schedule: Q04DX002 (ip), vehicle: saline with Tween-80 90 % of control

Cn1c(Cc2ccccc2)c(-c2ccccc2)c(-c2ccccc2)c1Cc1ccccc1
inactive: dose: 75.0 mg/kg/injection, schedule: Q01DX001 (ip), vehicle: saline 94 % of control | dose: 150.0 mg/kg/injection, schedule: Q01DX001 (ip), vehicle: saline 88 % of control | dose: 300.0 mg/kg/injection, schedule: Q01DX001 (ip), vehicle: saline 93 % of control

O=C(CCCC(=O)N/N=C/c1cc(Br)ccc1O)N/N=C\c1cc(Br)ccc1O
inactive: dose: 50.0 mg/kg/injection, schedule: Q01DX001 (ip), vehicle: saline 93 % of control | [1] 98 % of control | dose: 100.0 mg/kg/injection, schedule: Q01DX009 (ip), vehicle: saline 89 % of control | [2] 98 % of control | [3] 96 % of control | dose: 400.0 mg/kg/injection, schedule: Q01DX009 (ip), vehicle: saline 92 % of control

CC1(C)Oc2nc(N)nc(N)c2C1c1ccc(Cl)cc1 (centres undefined)
inactive: [4] 106 % of control | [5] 97 % of control | [6] 103 % of control

c1cc[c]([Sn]([c]2ccccc2)([c]2ccccc2)[n]2cccc2)cc1
inactive: dose: 3.13 mg/kg/injection, schedule: Q01DX009 (ip), vehicle: saline with Tween-80 98 % of control | dose: 6.25 mg/kg/injection, schedule: Q01DX009 (ip), vehicle: saline with Tween-80 102 % of control | dose: 12.5 mg/kg/injection, schedule: Q01DX009 (ip), vehicle: saline with Tween-80 100 % of control | dose: 100.0 mg/kg/injection, schedule: Q01DX009 (ip), vehicle: saline with Tween-80 94 % of control

O=C(Nc1ccccc1F)C(F)(F)F
inactive: [4] 103 % of control | [5] 105 % of control | [6] 97 % of control

CC(c1ccc2ccccc2c1)C1CCCCC1C(=O)O (centres undefined)
inactive: [7] 96 % of control | [8] 97 % of control | [9] 94 % of control

CC(=O)NC1C(OCC(NC(=O)OCc2ccccc2)C(=O)NC(CC(=O)OCc2ccccc2)C(=O)OCc2ccccc2)OC(COC(C)=O)C(OC(C)=O)C1OC(C)=O (centres undefined)
inactive: dose: 50.0 mg/kg/injection, schedule: Q04DX002 (ip), vehicle: Klucel (hydroxypropylcellulose) (HPC) 97 % of control | [10] 97 % of control | [11] 87 % of control

C(=C\CSc1ccccc1)/CSc1ccccc1
inactive: [10] 97 % of control | [11] 94 % of control | [12] 97 % of control

O=C(O)c1cc(O)cc(O)c1
inactive: dose: 25.0 mg/kg/injection, schedule: Q01DX009 (ip), vehicle: Klucel (hydroxypropylcellulose) (HPC) 100 % of control | dose: 50.0 mg/kg/injection, schedule: Q01DX009 (ip), vehicle: Klucel (hydroxypropylcellulose) (HPC) 97 % of control | [13] 100 % of control

COC(=O)c1cc(Cl)ccc1OCC(=O)O
inactive: dose: 100.0 mg/kg/injection, schedule: Q01DX001 (ip), vehicle: Klucel (hydroxypropylcellulose) (HPC) 90 % of control | [4] 102 % of control | [14] 93 % of control | [5] 101 % of control | [15] 90 % of control | [6] 107 % of control

CCOC(OCC)c1nc(N)nc(N)c1-c1ccc(Cl)c(Cl)c1
inactive: dose: 11.0 mg/kg/injection, schedule: Q01DX009 (ip), vehicle: other 98 % of control | dose: 22.5 mg/kg/injection, schedule: Q01DX009 (ip), vehicle: other 101 % of control | dose: 45.0 mg/kg/injection, schedule: Q01DX009 (ip), vehicle: other 101 % of control | dose: 89.0 mg/kg/injection, schedule: Q01DX009 (ip), vehicle: saline 102 % of control | dose: 90.0 mg/kg/injection, schedule: Q01DX009 (ip), vehicle: other 115 % of control | [1] 100 % of control | dose: 134.0 mg/kg/injection, schedule: Q01DX009 (ip), vehicle: saline 119 % of control | [2] 107 % of control | dose: 300.0 mg/kg/injection, schedule: Q01DX009 (ip), vehicle: saline 101 % of control

O=C(/C=C/c1c(Cl)cccc1Cl)c1ccc([N+](=O)[O-])cc1
inactive: [4] 103 % of control | [5] 94 % of control | [6] 94 % of control

COC1=CC23CCN(C)C(CCc4cc(OC)c(OC)c(OC)c42)C3=CC1=O (centres undefined)
inactive: dose: 25.0 mg/kg/injection, schedule: Q04DX002 (ip), vehicle: saline 114 % of control | dose: 50.0 mg/kg/injection, schedule: Q04DX002 (ip), vehicle: saline 108 % of control | dose: 100.0 mg/kg/injection, schedule: Q04DX002 (ip), vehicle: saline 111 % of control | dose: 200.0 mg/kg/injection, schedule: Q04DX002 (ip), vehicle: saline 105 % of control | dose: 400.0 mg/kg/injection, schedule: Q04DX002 (ip), vehicle: saline 103 % of control

COc1ccc(Cl)cc1[N+](=O)[O-]
inactive: [14] 95 % of control | [15] 95 % of control

COC(=O)c1cc2nc(C(C)C)n(Cc3ccccc3)c2cc1C(=O)OC
inactive: dose: 100.0 mg/kg/injection, schedule: Q01DX001 (ip), vehicle: other 99 % of control | dose: 100.0 mg/kg/injection, schedule: Q01DX009 (ip), vehicle: other 104 % of control and 87 % of control | [10] 105 % of control | dose: 100.0 mg/kg/injection, schedule: Q04DX002 (ip), vehicle: other 102 % of control and 91 % of control | dose: 100.0 mg/kg/injection, schedule: Q04DX003 (ip), vehicle: other 107 % of control | dose: 200.0 mg/kg/injection, schedule: Q01DX001 (ip), vehicle: other 100 % of control | dose: 200.0 mg/kg/injection, schedule: Q01DX009 (ip), vehicle: other 101 % of control and 90 % of control | [11] 98 % of control | dose: 200.0 mg/kg/injection, schedule: Q04DX002 (ip), vehicle: other 95 % of control and 108 % of control | dose: 200.0 mg/kg/injection, schedule: Q04DX003 (ip), vehicle: other 109 % of control | dose: 400.0 mg/kg/injection, schedule: Q01DX001 (ip), vehicle: other 89 % of control | dose: 400.0 mg/kg/injection, schedule: Q01DX009 (ip), vehicle: other 97 % of control and 106 % of control | [12] 102 % of control | dose: 400.0 mg/kg/injection, schedule: Q04DX002 (ip), vehicle: other 95 % of control and 107 % of control | dose: 400.0 mg/kg/injection, schedule: Q04DX003 (ip), vehicle: other 105 % of control

C/C=C/C=N/NC(=O)c1ccc(OC)cc1
inactive: [13] 102 % of control | dose: 200.0 mg/kg/injection, schedule: Q01DX009 (ip), vehicle: Klucel (hydroxypropylcellulose) (HPC) 86 % of control

COc1ccc2c(CSc3ncnc4nc[nH]c34)cc(=O)oc2c1
inactive: [11] 94 % of control | [12] 94 % of control

Nc1csc2cccc[n+]12
inactive: dose: 25.0 mg/kg/injection, schedule: Q04DX003 (ip), vehicle: saline 100 % of control | [1] 96 % of control

COC(=O)c1ccc(COc2ccc([N+](=O)[O-])cc2Cl)cc1
inactive: dose: 100.0 mg/kg/injection, schedule: Q01DX009 (ip), vehicle: saline sonified 94 % of control | [7] 96 % of control | dose: 200.0 mg/kg/injection, schedule: Q01DX009 (ip), vehicle: saline sonified 96 % of control | [8] 94 % of control | dose: 400.0 mg/kg/injection, schedule: Q01DX009 (ip), vehicle: saline sonified 94 % of control | [9] 96 % of control
